Assay results as given in the supplement of paper PMC10307832.

Columns and labels:
Test in all cases: relative viability (nuclei count vs DMSO), 5 days (fraction); higher = more cells survive
Mirin + OSI-027 = compound: N=C1NC(=O)/C(=C/c2ccc(O)cc2)S1 [Mirin] + COc1cccc2cc(-c3nc([C@H]4CC[C@H](C(=O)O)CC4)n4ncnc(N)c34)[nH]c12 [OSI-027] (partner 0.5 µM)
Procedure, shortened: (§1)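 Relative viability was taken as the ratio of nuclei in treated wells to nuclei in vehicle wells. Lung cancer cell lines in 1536-well plates received compounds by pin tool one day after seeding, either one drug alone or a fixed anchor-drug dose plus five library-drug doses (not always all listed) in √10 steps. Nuclei were counted on 4× images after 5 days of treatment, and values are medians of duplicate plates.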

[1] = compound: CCn1c(-c2nonc2N)nc2cnc(Oc3cccc(NC(=O)c4ccc(OCCN5CCOCC5)cc4)c3)cc21 + Nc1nc2[nH]cc(CCc3ccc(C(=O)N[C@@H](CCC(=O)O)C(=O)O)cc3)c2c(=O)[nH]1 [Pemetrexed] (partner 0.2 µM)
Procedure, shortened: as §1

[2] = compound: CCC1=CN=CN=C1N2CCN(CC2)CC3=NC4=C(N3)C=C(C=C4)C(F)(F)F + C[C@]1(O)C[C@@H](c2nc(-c3ccc4ccc(-c5ccccc5)nc4c3)c3c(N)nccn32)C1 [Linsitinib] (partner 1 µM)
Procedure, shortened: as §1

[3] = compound: CCC1=CN=CN=C1N2CCN(CC2)CC3=NC4=C(N3)C=C(C=C4)C(F)(F)F + CC(C)C[C@H](NC(=O)[C@H](Cc1ccccc1)NC(=O)c1cnccn1)B(O)O [Bortezomib] (partner 0.002 µM)
Procedure, shortened: as §1

Cell Line | relative viability (Mirin + OSI-027; first compound 0.25 µM) | relative viability (Mirin + OSI-027; first compound 0.7906 µM) | relative viability (Mirin + OSI-027; first compound 2.5 µM) | relative viability (Mirin + OSI-027; first compound 7.906 µM) | relative viability (Mirin + OSI-027; first compound 25 µM) | relative viability ([1]; first compound 0.04 µM) | relative viability ([1]; first compound 0.1265 µM) | relative viability ([1]; first compound 0.4 µM) | relative viability ([1]; first compound 1.265 µM) | relative viability ([1]; first compound 4 µM) | relative viability ([2]; first compound 0.04 µM) | relative viability ([2]; first compound 0.1265 µM) | relative viability ([2]; first compound 0.4 µM) | relative viability ([2]; first compound 1.265 µM) | relative viability ([2]; first compound 4 µM) | relative viability ([3]; first compound 0.04 µM) | relative viability ([3]; first compound 0.1265 µM) | relative viability ([3]; first compound 0.4 µM) | relative viability ([3]; first compound 1.265 µM) | relative viability ([3]; first compound 4 µM)
NCI-H1563 | 0.697 | 0.816 | 0.744 | 0.731 | 0.648 | 0.82 | 0.769 | 0.694 | 0.595 | 0.734 | 1.27 | 1.24 | 1.27 | 1.18 | 1.1 | 0.829 | 1 | 0.838 | 0.656 | 0.976
NCI-H1651 | 0.782 | 0.701 | 0.877 | 0.549 | 0.662 | 0.714 | 0.693 | 0.578 | 0.312 | 0.471 | 0.96 | 1.09 | 0.934 | 0.938 | 0.944 | 0.876 | 0.926 | 0.953 | 0.851 | 0.96
NCI-H1666 | 0.795 | 0.949 | 0.806 | 0.79 | 0.682 | 0.875 | 0.859 | 0.926 | 0.828 | 0.606 | 0.726 | 0.832 | 0.845 | 0.913 | 0.821 | 0.799 | 0.714 | 0.896 | 0.811 | 0.779
NCI-H1734 | 0.636 | 0.574 | 0.525 | 0.548 | 0.488 | 0.397 | 0.401 | 0.307 | 0.281 | 0.29 | 0.971 | 0.836 | 0.946 |  | 0.877 | 0.919 | 0.853 | 0.907 |  | 0.854
NCI-H1755 | 0.686 | 0.75 | 0.662 | 0.687 | 0.766 | 0.46 | 0.41 | 0.439 | 0.364 | 0.355 | 1.02 | 0.938 | 0.955 | 0.948 | 0.944 | 1.02 | 0.882 | 0.953 | 0.816 | 1.06
NCI-H1792 | 0.724 | 0.746 | 0.745 |  | 0.634 | 0.972 | 0.724 | 0.228 | 0.274 | 0.449 | 0.522 | 0.543 | 0.497 | 0.424 | 0.511 | 0.885 | 0.782 | 0.926 | 1.04 | 1
NCI-H1915 | 0.586 |  | 0.625 | 0.579 | 0.6 | 0.497 | 0.494 | 0.448 | 0.183 | 0.174 | 1.15 | 1.09 | 1.09 | 1.04 | 1.12 | 1.01 | 0.907 | 0.966 | 0.962 | 1.01
NCI-H1975 | 0.783 | 0.733 | 0.692 | 0.82 | 0.626 | 0.29 | 0.269 | 0.23 | 0.188 | 0.178 | 1.07 | 0.966 | 0.898 | 0.901 | 0.921 | 0.449 | 0.341 | 0.363 | 0.335 | 0.318
NCI-H1993 | 0.549 |  | 0.578 | 0.496 | 0.539 | 0.649 | 0.616 | 0.526 | 0.579 | 0.526 | 0.81 | 0.799 | 0.753 | 0.72 | 0.838 | 1.16 | 0.952 | 0.927 | 1.25 | 1.01
NCI-H2009 | 0.646 | 0.662 | 0.706 | 0.413 | 0.522 | 0.916 | 0.817 | 0.757 | 0.607 | 0.492 | 1.16 | 1.19 | 1.21 | 1.2 | 1.17 | 1.13 | 0.999 | 1.03 | 0.716 | 0.982
NCI-H2023 | 0.407 | 0.466 | 0.401 | 0.356 | 0.285 | 0.231 | 0.155 | 0.214 | 0.163 | 0.153 | 0.714 | 0.658 | 0.664 | 0.757 | 0.746 | 1.04 | 1.03 | 0.964 | 0.837 | 1.17
NCI-H2085 | 0.873 | 0.674 | 0.748 | 0.603 | 0.584 | 0.888 | 0.591 | 0.601 | 0.591 | 0.664 | 0.911 | 0.787 | 0.982 | 0.823 | 0.793 | 0.927 | 0.949 | 1.13 | 1.03 | 1.04
NCI-H2087 | 0.633 | 0.436 | 0.374 | 0.253 | 0.358 | 0.777 | 0.653 | 0.642 | 0.603 | 0.596 | 1.08 | 1.01 | 1.08 | 0.795 | 0.754 | 0.859 | 0.805 | 0.824 | 0.65 | 0.766
NCI-H2126 | 0.76 | 0.655 | 0.585 | 0.773 | 0.579 | 0.8 | 0.715 | 0.51 | 0.765 | 0.642 | 0.666 | 0.696 | 0.725 | 0.614 | 0.733 | 1.05 | 1.08 | 1.19 | 1.16 | 1.14
NCI-H2228 | 0.57 | 0.44 | 0.515 | 0.575 | 0.538 | 0.328 | 0.289 | 0.302 | 0.285 | 0.333 | 0.343 | 0.629 | 0.814 | 0.576 | 0.689 | 1.29 | 1.11 | 1.19 | 1.05 | 1.11
NCI-H2347 | 0.459 | 0.426 | 0.4 | 0.476 | 0.36 | 0.438 | 0.424 | 0.399 | 0.33 | 0.371 | 0.961 | 0.926 | 0.944 | 0.942 | 1.09 | 1.07 | 0.92 | 0.724 |  | 1.04
